Measured values as given in patent US9725442B2, “Heterocyclic derivative having PGD2 receptor antagonist activity” (Shionogi & Co., Ltd., priority 2011, dated 2017).
pIC50, pKi: −log10 of the molar value. Where two headings read alike, the source gives them in different places.

Legend:
DP receptor = DP receptor (Homo sapiens (Human), UniProt Q13258); experiment: DP inhibitory activity in human platelets (PGD2-induced cAMP increase in platelet rich plasma, HTRF); type: cell-based; conditions: IC50 of PGD2 (300 nM)-induced cAMP increase, read-out: PRP
Sequence of DP receptor (Q13258 whole entry): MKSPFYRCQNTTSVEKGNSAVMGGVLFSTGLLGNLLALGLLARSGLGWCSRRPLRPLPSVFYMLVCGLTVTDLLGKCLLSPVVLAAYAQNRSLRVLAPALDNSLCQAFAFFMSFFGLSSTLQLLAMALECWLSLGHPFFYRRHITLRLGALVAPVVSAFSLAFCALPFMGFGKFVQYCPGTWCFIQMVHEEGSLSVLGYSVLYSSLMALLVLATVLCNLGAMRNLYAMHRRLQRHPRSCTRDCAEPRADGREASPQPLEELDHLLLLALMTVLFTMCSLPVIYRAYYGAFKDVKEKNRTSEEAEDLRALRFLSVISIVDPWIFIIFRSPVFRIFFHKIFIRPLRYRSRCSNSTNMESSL
Method: Thirty milliliter of blood was drown from healthy human into a syringe preloaded with 1/9 volume of 3.8% citrate sodium. The blood was centrifuged with 180 g for 10 min at room temperature and the upper plasma layer was collected as platelet rich plasma (PRP). The PRP was transferred to plate and treated with 3-isobutyl-1-methylxanthin (IBMX; […]) for 5 min. Then the compounds of the present invention were added to the plate and after 10 min, 300 nM of PGD2 was added. The reaction was stopped with 1 mmol/l hydrogenchlolide after 2 min of PGD2 addition, and platelet was lysed by adding 12% Triton X-100. The concentration of cAMP in the supernatant of the platelet lysate was quantified using homogenous time resolved fluorescence (HTRF). Inhibition ratio was defined by cAMP increase with and without compound, and […] for each compound was calculated from inhibitory curve.

Human DP1 receptor = Human DP1 receptor (Homo sapiens (Human), UniProt Q13258); experiment: Human DP1 inhibitory activity in DP1-expressing cell (PGD2-induced cAMP); type: cell-based
Sequence of Human DP1 receptor (Q13258 whole entry): as above
Method: Compounds were categorized as AA (cAMP is less than 100 nM) and A (cAMP is more than 100 nM and less than 5000 nM) as shown in Table 99 and 100.

CRTH2 = CRTH2 (Homo sapiens (Human), UniProt Q9Y5Y4); experiment: CRTH2 receptor binding inhibitory activity ([3H]-PGD2 displacement, membranes of CRTH2-expressing K562 cell); conditions: [3H]-PGD2 displacement, membrane of CRTH2-expressing K562 cell, read-out: Ki
Sequence of CRTH2 (Q9Y5Y4 whole entry): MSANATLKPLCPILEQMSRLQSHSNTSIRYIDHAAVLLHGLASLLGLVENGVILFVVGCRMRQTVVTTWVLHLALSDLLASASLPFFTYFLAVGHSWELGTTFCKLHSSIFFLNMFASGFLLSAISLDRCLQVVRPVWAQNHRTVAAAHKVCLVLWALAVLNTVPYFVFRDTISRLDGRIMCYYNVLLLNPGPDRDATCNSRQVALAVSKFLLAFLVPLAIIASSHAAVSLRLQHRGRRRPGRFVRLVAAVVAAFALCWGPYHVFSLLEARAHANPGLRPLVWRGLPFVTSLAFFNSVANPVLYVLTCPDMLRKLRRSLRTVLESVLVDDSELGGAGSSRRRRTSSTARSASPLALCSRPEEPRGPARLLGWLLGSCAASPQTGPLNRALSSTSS
Method in brief: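 CRTH2-expressing K562 membranes (20 μg/well) in 50 mM Tris/HCl pH 7.4 with 10 mM MgCl2 were incubated with [3H]-PGD2 for 60 min at room temperature, then filtered.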

[1] = IC50 of PGD2 (60 nM)-induced cAMP increase, human DP1 receptor expressing Jurkut cell
[2] = category of cAMP IC50, human DP1 receptor expressing Jurkut cell
[3] = CRTH2 receptor binding, categorized AAAA/AAA

Compound	pIC50 (DP receptor)	pIC50 (Human DP1 receptor; [1])	pIC50 (Human DP1 receptor; [2])	pKi (CRTH2; [3])	pKi (CRTH2)
CCOc1ncc(S(=O)(=O)N2C[C@@H](C)[C@@H](n3nc(CC(=O)O)c4ccc(F)cc43)C2)s1 [Compound I-166]	7.26	7.49	> 7.00	> 7.00	7.92
CCOc1ccc(S(=O)(=O)N2C[C@@H](C)[C@@H](n3nc(CC(=O)O)c4c(F)cccc43)C2)cc1 [Compound I-150]	7.39	7.70	> 7.00	> 7.00	7.00
CC(C)Oc1ccc(S(=O)(=O)N2CC[C@@H](n3nc(CC(=O)O)c4ccc(F)cc43)[C@H]2C)cc1 [Compound I-1]			5.30 to 7.00	5.30 to 7.00	
CCOc1ccc(S(=O)(=O)N2C[C@@H](C)[C@@H](n3nc(CC(=O)O)c4ccc(C#N)cc43)C2)cn1 [Compound I-173]			5.30 to 7.00	> 7.00	7.96
C[C@@H]1CN(S(=O)(=O)c2ccc(OCCOc3ccccc3)cc2)C[C@@H]1n1nc(CC(=O)O)c2ccccc21 [Compound I-192]			5.30 to 7.00	> 7.00	
CC(C)Oc1ccc(S(=O)(=O)N2C[C@H](n3nc(CC(=O)O)c4ccc(F)cc43)C[C@@H]2C)cc1 [Compound I-46]			> 7.00	> 7.00	
CC(C)Oc1ccc(S(=O)(=O)N2C[C@@H](C)[C@@H](n3nc(CC(=O)O)c4cc5c(cc43)OCO5)C2)cc1 [Compound I-174]		7.00	> 7.00	> 7.00	7.30
Cc1ccc2c(CC(=O)O)nn([C@H]3CN(S(=O)(=O)c4ccc(OC(F)F)cc4)C[C@H]3C)c2c1 [Compound I-110]			> 7.00	> 7.00	
CCOc1ccc(S(=O)(=O)N2C[C@H](n3nc(CC(=O)O)c4ccccc43)[C@@](C)(F)C2)cn1 (racemic) [Compound I-207]			5.30 to 7.00	> 7.00	
C[C@@H]1CN(S(=O)(=O)c2ccc(OCCOC(C)(C)C)cc2)C[C@@H]1n1nc(CC(=O)O)c2ccccc21 [Compound I-193]			5.30 to 7.00	5.30 to 7.00	
CC(C)Oc1ccc(S(=O)(=O)N2CC(=O)C(n3nc(CC(=O)O)c4ccc(F)cc43)C2)cc1 (stereo not shown) [Compound I-27]			5.30 to 7.00	> 7.00	
CC(C)Oc1ccc(S(=O)(=O)N2C[C@@H](C)[C@@H](n3nc(CC(=O)O)c4cc(F)c(F)cc43)C2)cc1 [Compound I-68]			> 7.00	> 7.00	
CC(C)Oc1ccc(S(=O)(=O)N2C[C@H](n3nc(CC(=O)O)c4ccc(F)cc43)C[C@@]2(C)C#N)cc1 [Compound I-105]			> 7.00	> 7.00	
CC(C)Oc1ccc(S(=O)(=O)N2[C@H](C)C[C@H](n3nc(CC(=O)O)c4ccc(F)cc43)C[C@@H]2C)cc1 [Compound I-73]			> 7.00	5.30 to 7.00	
CC(C)Oc1ccc(S(=O)(=O)N2C[C@H](n3nc(CC(=O)O)c4ccc(F)cc43)C[C@H]2C(N)=O)cc1 [Compound I-2]			5.30 to 7.00	5.30 to 7.00	
CC(C)Oc1ccc(S(=O)(=O)N2C[C@H](n3nc(CC(=O)O)c4ccccc43)C[C@@H]2C(F)F)cc1 [Compound I-90]			> 7.00	5.30 to 7.00	
CCOc1ccc(S(=O)(=O)N2C[C@@H](C)[C@@H](n3nc(CC(=O)O)c4ccc(F)cc43)C2)cn1 [Compound I-108]			> 7.00	> 7.00	
CC(C)Oc1ccc(S(=O)(=O)N2C[C@H](n3nc(CC(=O)O)c4ccccc43)[C@@](C)(O)C2)cc1 [Compound I-86]			5.30 to 7.00	> 7.00	
CC(C)Oc1ccc(S(=O)(=O)N2C[C@H](C)[C@@H](n3nc(CC(=O)O)c4ccccc43)C2)cc1 [Compound I-115]			> 7.00	> 7.00	
CC(C)Oc1ccc(S(=O)(=O)N2C[C@H](n3nc(CC(=O)O)c4ccc(F)cc43)C[C@@H]2Cn2ccnc2)cc1 [Compound I-20]			5.30 to 7.00	> 7.00	
CCOc1ccc(S(=O)(=O)N2C[C@@H](C)[C@@H](n3nc(CC(=O)O)c4ccccc43)C2)c(/C=C/COC)c1 [Compound I-182]			5.30 to 7.00	> 7.00	
Cc1cccn(C[C@H]2C[C@@H](n3nc(CC(=O)O)c4ccc(F)cc43)CN2S(=O)(=O)c2ccc(OC(C)C)cc2)c1=O [Compound I-23]			5.30 to 7.00	> 7.00	
Cc1ccc2c(CC(=O)O)nn([C@H]3CN(S(=O)(=O)c4ccc(OC(C)C)cc4)C[C@]3(C)O)c2c1 [Compound I-87]			5.30 to 7.00	> 7.00	
CCOc1ccc(S(=O)(=O)N2C[C@@H](C)[C@@H](n3nc(CC(=O)O)c4ccccc43)C2)c(CCCOC)c1 [Compound I-183]			5.30 to 7.00	> 7.00	

Further lines, results first:

pIC50 (DP receptor)	pIC50 (Human DP1 receptor; [1])	pIC50 (Human DP1 receptor; [2])	pKi (CRTH2; [3])	pKi (CRTH2)	Compound
6.74	7.46	> 7.00	5.30 to 7.00	6.36	CCOc1ccc(S(=O)(=O)N2C[C@@H](C)[C@@H](n3nc(C4(C(=O)O)CC4)c4ccccc43)C2)cc1 [Compound I-336]
6.89	7.30	> 7.00	> 7.00	7.26	CCOc1ccc(S(=O)(=O)N2C[C@@H](C)[C@@H](n3nc(C(C)C(=O)O)c4ccccc43)C2)cc1 (stereo partly shown) [Compound I-284]
7.43	6.92	5.30 to 7.00	5.30 to 7.00	6.40	CCOc1ccc(S(=O)(=O)N2C[C@H](n3nc(CC(=O)O)c4ccccc43)CC23COC3)cc1 [Compound I-353]
7.92	7.54	> 7.00	5.30 to 7.00	6.57	CCOc1ccc(S(=O)(=O)N2C[C@H](n3nc(CC(=O)O)c4ccccc43)C[C@@H]2C#N)cc1 [Compound I-322]
		5.30 to 7.00	5.30 to 7.00		CCOc1ccc(S(=O)(=O)N2C[C@@H](C)[C@@H](n3nc(C(O)C(=O)O)c4ccccc43)C2)cc1 (single isomer, unassigned) [Compound I-307]
		> 7.00	> 7.00		CCOc1ccc(S(=O)(=O)N2C[C@H](n3nc(CC(=O)O)c4ccccc43)[C@@H](C)[C@@H]2C#N)cc1 [Compound I-304]
		5.30 to 7.00	5.30 to 7.00		CCS(=O)(=O)CCOc1ccc(S(=O)(=O)N2C[C@@H](C)[C@@H](n3nc(CC(=O)O)c4ccccc43)C2)cc1 [Compound I-305]
		> 7.00	> 7.00		CC(C)Oc1ccc(S(=O)(=O)N2C[C@H](n3nc(CC(=O)O)c4ccc(F)cc43)C[C@@H]2CCc2ccccc2)cc1 [Compound I-343]
		> 7.00	> 7.00		CCSCCOc1ccc(S(=O)(=O)N2C[C@@H](C)[C@@H](n3nc(CC(=O)O)c4ccccc43)C2)cc1 [Compound I-308]
		> 7.00	> 7.00		CCOc1ccc(S(=O)(=O)N2C[C@@H](C)[C@@H](n3nc(CC(=O)O)c4ccc(C5=CCCCC5)cc43)C2)cn1 [Compound I-221]
		5.30 to 7.00	> 7.00		COc1ccc(S(=O)(=O)N2C[C@@H](C)[C@@H](n3nc(CC(=O)O)c4ccc(F)cc43)C2)nc1 [Compound I-234]
		> 7.00	5.30 to 7.00		CCOc1ccc(S(=O)(=O)N2C[C@@H](C)[C@@H](n3nc(C(C)(O)C(=O)O)c4ccccc43)C2)cc1 (stereo partly shown) [Compound I-283]
		> 7.00	5.30 to 7.00		CC(C)Oc1ccc(S(=O)(=O)N2C[C@H](n3nc(CC(=O)O)c4ccc(F)cc43)C[C@@H]2COc2ccccc2O)cc1 [Compound I-292]
		5.30 to 7.00	> 7.00	8.00	CC(C)Oc1ccc(S(=O)(=O)N2CC[C@@H](n3nc(CC(=O)O)c4ccc(F)cc43)[C@@H]2C)cc1 [Compound I-210]
		> 7.00	> 7.00		C[C@@H]1CN(S(=O)(=O)c2ccc(OC(F)F)cc2)C[C@@H]1n1nc(CC(=O)O)c2cc(F)ccc21 [Compound I-251]
		> 7.00	5.30 to 7.00		CCOc1ccc(S(=O)(=O)N2C[C@@H](C)[C@@H](n3nc(C(F)C(=O)O)c4ccccc43)C2)cc1 (stereo partly shown) [Compound I-338]
		> 7.00	5.30 to 7.00		CC(C)Oc1ccc(S(=O)(=O)N2C[C@H](n3nc(CC(=O)O)c4ccccc43)C[C@@H]2Cc2ccccc2)cc1 [Compound I-349]
		> 7.00	> 7.00		CCOc1ccc(S(=O)(=O)N2C[C@H](n3nc(CC(=O)O)c4ccc(F)cc43)C(C)(C)C2)cc1 [Compound I-331]
		> 7.00	5.30 to 7.00		CCOc1ccc(S(=O)(=O)N2C[C@H](n3c(C)c(CC(=O)O)c4ccccc43)C[C@@H]2C)cc1 [Compound I-315]
		5.30 to 7.00	> 7.00		CCOc1ccc(S(=O)(=O)N2C[C@@H](C)[C@@H](n3nc(CC(=O)O)c4ccccc43)C2)c(CCO)c1 [Compound I-314]
		> 7.00	> 7.00		CCOc1ccc(S(=O)(=O)N2C[C@@H](C)[C@@H](n3nc(CC(=O)O)c4cc(F)ccc43)C2)cc1 [Compound I-252]
		5.30 to 7.00	> 7.00	8.36	CC(C)C1CC1S(=O)(=O)N1C[C@@H](C)[C@@H](n2nc(CC(=O)O)c3ccc(F)cc32)C1 (stereo partly shown) [Compound I-239]
